According to patent US4524073A, “β-Lactam compounds” (Beecham Group p.1.c., priority 1982, dated 1985):
≈ marks a conversion by molar mass, not a printed value.

How the values were obtained:
E.coli JT39 = assay: Antibacterial activity, E. coli JT39 (Table 2); format: cell-based; settings: Escherichia coli, compound alone
S.aureus Russell = assay: Antibacterial activity, S. aureus Russell (Table 2); format: cell-based; settings: Staphylococcus aureus, compound alone

MIC (E.coli JT39) [µg/mL]	MIC (S.aureus Russell) [µg/mL]	SMILES
31.2 (≈ 93.6 µM)	16 (≈ 48 µM)	CS(=O)(=O)NCCCNC/C=C1\O[C@@H]2CC(=O)N2[C@H]1C(=O)O [Example 13, 9-N-(3-Methylsulphonamidopropyl)aminodeoxyclavulanic acid]
8 (≈ 22.3 µM)	2 (≈ 5.57 µM)	O=C(CCNC/C=C1\O[C@@H]2CC(=O)N2[C@H]1C(=O)O)NCc1ccccc1 [Example 25, 9-N-(3-N-Benzylcarbamoyleth-1-yl)aminodeoxyclavulanic acid]
31.2 (≈ 103 µM)	4 (≈ 13.2 µM)	O=C(O)[C@H]1/C(=C/CNCCc2ccccn2)O[C@@H]2CC(=O)N21 [Example 4, 9-N-(2-Pyrid-2'-ylethyl)aminodeoxyclavulanic acid]
8 (≈ 23.4 µM)	≤ 0.5	O=C(O)[C@H]1/C(=C/CNCCc2c[nH]c3ccccc23)O[C@@H]2CC(=O)N21 [Example 26, 9-N-(2-Indol-3'-ylethyl)aminodeoxyclavulanic acid]
31.2 (≈ 91.1 µM)	16 (≈ 46.7 µM)	CCOC(CCCNC/C=C1\O[C@@H]2CC(=O)N2[C@H]1C(=O)O)OCC [Example 19, 9-N-(4,4-Diethoxybutyl)amino deoxyclavulanic acid]
31.2 (≈ 103 µM)	8 (≈ 26.4 µM)	O=C(O)[C@H]1/C(=C/CNCCc2ccncc2)O[C@@H]2CC(=O)N21 [Example 5, 9-N-(2-Pyrid-4'-ylethyl)amino deoxyclavulanic acid]
16 (≈ 50.4 µM)	4 (≈ 12.6 µM)	O=C(O)[C@H]1/C(=C/CNCCNc2ccccc2)O[C@@H]2CC(=O)N21 [Example 29, 9-N-(2-Phenylaminoethyl)aminodeoxyclavulanic acid]
31.2 (≈ 97.7 µM)	8 (≈ 25.1 µM)	CS(=O)(=O)NCCNC/C=C1\O[C@@H]2CC(=O)N2[C@H]1C(=O)O [Example 12, 9-N-(2-methylsulphonamidoethyl)aminodeoxyclavulanic acid]
31.2 (≈ 98 µM)	2 (≈ 6.28 µM)	O=C(O)[C@H]1/C(=C/CNCC(O)c2ccccc2)O[C@@H]2CC(=O)N21 (stereo partly shown) [Example 30, 9-N-(2-Hydroxy-2-phenylethyl)aminodeoxyclavulanic acid]
62.5 (≈ 200 µM)	4 (≈ 12.8 µM)	CN(C)C(=O)NCCNC/C=C1\O[C@@H]2CC(=O)N2[C@H]1C(=O)O [Example 22 (2nd compound), 9-N-(N'N'-dimethylureido)ethylaminodeoxyclavulanic acid]
16 (≈ 59.4 µM)	16 (≈ 59.4 µM)	NC(=O)CCNC/C=C1\O[C@@H]2CC(=O)N2[C@H]1C(=O)O [Example 28, 9-N-(2-carbamoylethyl)aminodeoxyclavulanic acid]
16 (≈ 55.9 µM)	8 (≈ 27.9 µM)	COC(CNC/C=C1\O[C@@H]2CC(=O)N2[C@H]1C(=O)O)OC [Example 1, 9-N-(2,2-Dimethoxyethyl)amino deoxyclavulanate]
31.2 (≈ 102 µM)	8 (≈ 26.1 µM)	O=C(O)[C@H]1/C(=C/CNCCCn2ccnc2)O[C@@H]2CC(=O)N21 [Example 18]
31.2 (≈ 85.2 µM)	16 (≈ 43.7 µM)	O=C(O)[C@H]1/C(=C/CNCCS(=O)(=O)c2ccccc2)O[C@@H]2CC(=O)N21 [Example 23, 9-N-[2-(phenylsulphonyl)ethyl]aminodeoxyclavulanic acid]
8 (≈ 24.4 µM)	4 (≈ 12.2 µM)	CC(C)(CCCNC/C=C1\O[C@@H]2CC(=O)N2[C@H]1C(=O)O)[N+](=O)[O-] [Example 21, 9-N-[4-Methyl-4-nitropentyl]aminodeoxyclavulanic acid]

SMILES	MIC (E.coli JT39) [µg/mL]	MIC (S.aureus Russell) [µg/mL]
O=C(O)[C@H]1/C(=C/CNCCCl)O[C@@H]2CC(=O)N21 [Example 2, 9-N-(2-Chloroethyl)amino-deoxyclavulanic acid]	31.2 (≈ 120 µM)	8 (≈ 30.7 µM)
CC(=O)OCCCCNC/C=C1\O[C@@H]2CC(=O)N2[C@H]1C(=O)O [Example 20, 9-N-(4-Acetoxybutyl)aminodeoxyclavulanic acid]	31.2 (≈ 99.9 µM)	16 (≈ 51.2 µM)
